Results: publication PMC7642415, “Perturbed structural dynamics underlie inhibition and altered efflux of the multidrug resistance pump AcrB” (Nature Communications, 2020)
Where a SMILES comes first, the peptide text is derived from it.

Key:
[1] = biological target: T1, AcrB (Escherichia coli, UniProt P31224); assay: differential HDX-MS on purified AcrB WT; format: binding
T1 construct: full-length AcrB with C-terminal 6xHis tag, in DDM micelles

[2] = biological target: T2, AcrB (Escherichia coli, UniProt P31224, G288D); format: binding
T2 construct: full-length AcrB with C-terminal 6xHis tag, in DDM micelles
T2 sequence (P31224 whole entry G288D): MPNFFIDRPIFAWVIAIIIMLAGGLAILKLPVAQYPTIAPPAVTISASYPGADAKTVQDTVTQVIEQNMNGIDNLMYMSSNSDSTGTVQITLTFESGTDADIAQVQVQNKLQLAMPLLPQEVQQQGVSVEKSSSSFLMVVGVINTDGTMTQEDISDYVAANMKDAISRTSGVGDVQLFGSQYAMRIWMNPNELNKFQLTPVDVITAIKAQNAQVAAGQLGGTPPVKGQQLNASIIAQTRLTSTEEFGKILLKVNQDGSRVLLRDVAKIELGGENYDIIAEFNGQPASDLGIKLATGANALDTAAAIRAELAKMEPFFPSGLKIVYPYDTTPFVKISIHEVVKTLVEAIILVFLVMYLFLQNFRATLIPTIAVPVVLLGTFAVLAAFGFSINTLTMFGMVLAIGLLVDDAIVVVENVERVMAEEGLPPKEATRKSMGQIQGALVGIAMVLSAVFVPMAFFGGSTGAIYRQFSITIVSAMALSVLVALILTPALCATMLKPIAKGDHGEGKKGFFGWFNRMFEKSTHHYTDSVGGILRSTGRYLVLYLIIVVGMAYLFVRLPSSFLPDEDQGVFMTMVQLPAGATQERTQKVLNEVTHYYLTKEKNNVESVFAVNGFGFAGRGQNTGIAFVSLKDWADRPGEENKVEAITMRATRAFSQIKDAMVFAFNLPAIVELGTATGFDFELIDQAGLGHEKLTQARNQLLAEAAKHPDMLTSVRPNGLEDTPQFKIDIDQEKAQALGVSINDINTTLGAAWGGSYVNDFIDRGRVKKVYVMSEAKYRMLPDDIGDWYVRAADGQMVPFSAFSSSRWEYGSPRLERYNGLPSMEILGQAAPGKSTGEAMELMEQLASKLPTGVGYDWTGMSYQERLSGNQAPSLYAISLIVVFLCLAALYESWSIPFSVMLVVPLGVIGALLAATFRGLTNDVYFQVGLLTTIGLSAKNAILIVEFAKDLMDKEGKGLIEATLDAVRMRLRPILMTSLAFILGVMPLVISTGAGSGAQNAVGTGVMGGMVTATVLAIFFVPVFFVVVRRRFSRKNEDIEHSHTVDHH

T1 sequence (P31224 whole entry): as the sequence (P31224 whole entry G288D) above, with D288G counted along it

## NC(N)=NCCC[C@H](NC(=O)[C@@H](N)Cc1ccccc1)C(=O)Nc1ccc2ccccc2c1 [PAβN, phenylalanine-arginine-β-naphthylamide] (HELM PEPTIDE1{F.R.[c1ccc2cc(N[*:1])ccc2c1]}$$$$V2.0)
[1]
  differential HDX-MS on purified AcrB WT: inhibitor binding led to HDX reduction throughout extensive parts of the PC1/PC2 cleft of the drug-binding pockets
[2]
  differential HDX-MS on purified AcrB G288D: Upon substrate binding, PAβN caused reduced HDX within the PC1/PC2 regions for AcrB^G288D
